As a reminder, the GI50 is the concentration giving 50% growth inhibition.

SMILES strings stand for the structures.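 Where inhibition never reached the appropriate level, the endpoint shown equals the highest concentration tested. Otherwise, values were interpolated linearly from a five-concentration, 48-hour dose response in 96-well plates. GI50 marks 50% less growth.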 Calls of active or inactive are those of the source. Rule as the data show it: active = GI50 up to about 1.1 µM and inactive = higher.

Test systems include CCRF-CEM; HCC 2998; HL-60; Hs-578T; MCF7; MDA-N; Malme-3M; NCI-H226; NCI/ADR-RES; OVCAR-3; PC-3; RXF 393; SF-539; SK-MEL-28; SK-MEL-5; SK-OV-3; SR; T47D; TK-10; UO-31.
Test in all cases: DTP human tumour cell line panel, 48 h

For `CCOC(=O)CCC(NC(=O)C(N)Cc1ccc(N(CCCl)CCCl)cc1)C(=O)OCC` (stereo not given), the concentration for 50% growth inhibition (GI50) was < 0.0246 µM (active) in the experiment on CCRF-CEM; 0.662 µM (active) in the experiment on HCC 2998; 0.0665 µM (active) in the experiment on HL-60; 2.24 µM (inactive) in the experiment with Hs-578T; 0.377 µM (active) in the experiment on MCF7; 1.64 µM (inactive) in the experiment on MDA-N. Moreover, the GI50 in the experiment with Malme-3M was 0.234 µM (active); with NCI-H226, 6.14 µM (inactive); in the experiment on NCI/ADR-RES, 1.33 µM (inactive); in the experiment on OVCAR-3 it was 0.667 µM (active); in the experiment on PC-3, 1.34 µM (inactive); in the experiment on RXF 393, 0.515 µM (active). The GI50 in the experiment on SF-539 was 0.741 µM (active); with SK-MEL-28, 0.719 µM (active); with SK-MEL-5, 1.5 µM (inactive); in the experiment on SK-OV-3 it was 1.3 µM (inactive); in the experiment on SR, < 0.0182 µM (active); in the experiment on T47D, 0.446 µM (active). Moreover, the GI50 with TK-10 was 1.31 µM (inactive); with UO-31, 0.675 µM (active).
Turning to `CCOC(=O)Cn1c(=O)c2nc(SC)sc2n(CC)c1=S`, the GI50 with CCRF-CEM is > 100 µM (inactive); in the experiment with HCC 2998 it was > 100 µM (inactive); in the experiment on HL-60, > 100 µM (inactive); in the experiment on Hs-578T, 22.1 µM (inactive); in the experiment with MCF7, > 100 µM (inactive); in the experiment with MDA-N, > 100 µM (inactive). For the same molecule, the GI50 with Malme-3M was > 100 µM (inactive); with NCI-H226, > 100 µM (inactive); with NCI/ADR-RES, > 100 µM (inactive); in the experiment with OVCAR-3 it was > 100 µM (inactive); in the experiment on PC-3, > 100 µM (inactive); with RXF 393, 36.8 µM (inactive). Moreover, the GI50 in the experiment with SF-539 was > 100 µM (inactive); in the experiment on SK-MEL-28, > 100 µM (inactive); in the experiment with SK-MEL-5, > 100 µM (inactive); in the experiment on SK-OV-3 it was > 100 µM (inactive); in the experiment on SR it was > 100 µM (inactive); in the experiment on T47D it was 61 µM (inactive). The GI50 in the experiment on TK-10 was > 100 µM (inactive); in the experiment on UO-31, 14.2 µM (inactive).
Regarding `O=C1C(Cl)=C(N2CCN(C3=C(Cl)C(=O)c4ccccc4C3=O)CC2)C(=O)c2ccccc21`, the GI50 was 0.162 µM (active) in the experiment with CCRF-CEM; 2.78 µM (inactive) in the experiment with HCC 2998; 0.0841 µM (active) in the experiment with HL-60; 2.22 µM (inactive) in the experiment with Hs-578T; 1.72 µM (inactive) with MCF7; 1.86 µM (inactive) in the experiment with MDA-N. Moreover, the GI50 was 1.91 µM (inactive) in the experiment with Malme-3M; 4.25 µM (inactive) with NCI-H226; 1.92 µM (inactive) with NCI/ADR-RES; 1.6 µM (inactive) in the experiment with OVCAR-3; 7.31 µM (inactive) with PC-3; 1.63 µM (inactive) in the experiment with RXF 393. Also, the GI50 was 1.73 µM (inactive) in the experiment with SF-539; 1.94 µM (inactive) in the experiment with SK-MEL-28; 1.79 µM (inactive) in the experiment with SK-MEL-5; 14.1 µM (inactive) in the experiment with SK-OV-3; 0.179 µM (active) with SR; 0.729 µM (active) in the experiment on T47D. The GI50 in the experiment with TK-10 is 1.96 µM (inactive); in the experiment with UO-31 it was 1.45 µM (inactive).
Regarding `CC(=O)NNc1nc(C)c(C(/C=C/c2ccc(NC(C)=O)cc2)=N/NS(=O)(=O)c2ccc(C)cc2)s1`, the GI50 in the experiment on CCRF-CEM, with HCC 2998, in the experiment on HL-60, in the experiment with Hs-578T, in the experiment with MCF7 and in the experiment on MDA-N was > 100 µM (inactive) in each case. Besides, the GI50 in the experiment on Malme-3M, with NCI-H226, in the experiment on NCI/ADR-RES, in the experiment on OVCAR-3, with PC-3 and in the experiment with RXF 393 was > 100 µM (inactive) each time. Also, the GI50 with SF-539, in the experiment on SK-MEL-28, in the experiment on SK-MEL-5, in the experiment on SK-OV-3, in the experiment on SR and in the experiment with T47D was > 100 µM (inactive) throughout. Moreover, the GI50 with TK-10 and in the experiment with UO-31 was > 100 µM (inactive) throughout.
Consider `C1COC(NC(C2CC2)C2CC2)=N1` [RILMENIDINE], for which the GI50 in the experiment with CCRF-CEM, in the experiment on HCC 2998, in the experiment on HL-60, in the experiment with Hs-578T, in the experiment with MCF7 and with MDA-N was > 100 µM (inactive) in each case. Moreover, the GI50 in the experiment with Malme-3M, in the experiment on NCI-H226, in the experiment with NCI/ADR-RES, with OVCAR-3, in the experiment on PC-3 and in the experiment on RXF 393 was > 100 µM (inactive) each time. Moreover, the GI50 with SF-539, with SK-MEL-28, in the experiment with SK-MEL-5, in the experiment on SK-OV-3, in the experiment on SR and in the experiment on T47D was > 100 µM (inactive) each time. Also, the GI50 in the experiment on TK-10 and in the experiment with UO-31 was > 100 µM (inactive) throughout.
